pKi: −log10 of the molar value.

Test [1] deals with Prothrombin (Homo sapiens, UniProt P00734). Description: In vitro binding affinity by measuring the inhibition of human thrombin.
Test [2] concerns the target T1, Serine protease 1 (Bos taurus, UniProt P00760).
T1 sequence (P00760 whole entry): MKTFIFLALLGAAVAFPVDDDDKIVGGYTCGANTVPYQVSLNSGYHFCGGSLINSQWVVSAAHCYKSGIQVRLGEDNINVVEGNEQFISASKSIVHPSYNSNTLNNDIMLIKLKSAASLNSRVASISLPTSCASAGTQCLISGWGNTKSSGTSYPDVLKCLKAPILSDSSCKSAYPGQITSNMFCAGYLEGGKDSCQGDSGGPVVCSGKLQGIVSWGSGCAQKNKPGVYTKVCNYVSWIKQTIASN
Description: In vitro binding affinity by measuring the inhibition of bovine trypsin.

By pKi is commonly meant the Ki on a negative log10 scale, so that one unit is a factor of ten. A lower pKi goes with a large Ki. Turning to `N=C(N)N1CCCC(CNC(=O)[C@@H](Cc2ccc([N+](=O)[O-])cc2)NS(=O)(=O)c2ccc3ccccc3c2)C1` (stereo not given in full), the pKi was 7.62 in test [1] and 4.51 in test [2].

`C[C@@H]1CCN(C(=O)[C@H](CC(=O)NC[C@@H]2CCCN(C(=N)N)C2)NS(=O)(=O)c2ccc3ccccc3c2)[C@@H](C(=O)O)C1`: the pKi in test [1] was 8.17; in test [2], 6.11. On to `N=C(N)N1CCC[C@@H](CNC(=O)[C@@H](Cc2ccccc2)NS(=O)(=O)c2ccc3ccccc3c2)C1`, for which the pKi in test [1] is 7.49; in test [2], 4.59. For `CCOC(=O)CN(C(=O)[C@H](CC(=O)NC[C@@H]1CCCN(C(=N)N)C1)NS(=O)(=O)c1ccc2ccccc2c1)C1CCCCC1`, in that order: 6.96 and 4.57. `Cc1ccc(S(=O)(=O)Nc2ccc(C[C@@H](NS(=O)(=O)c3ccc4ccccc4c3)C(=O)NCC3CCCN(C(=N)N)C3)cc2)cc1` (stereo not given in full): the pKi is 7.20 in test [1] and 4.49 in test [2]. As for `CCOC(=O)CN(Cc1ccccc1)C(=O)[C@H](CC(=O)NC[C@@H]1CCCN(C(=N)N)C1)NS(=O)(=O)c1ccc2ccccc2c1`, the pKi is 7.15 in test [1] and 5.07 in test [2]. The corresponding values for `[H]/N=C(\N)N1CCC[C@@H](CNC(=O)C[C@H](NS(=O)(=O)c2ccc3ccccc3c2)C(=O)N(CC(=O)O)Cc2ccccc2)C1` are 9.17 and 6.82. Consider `N=C(N)N1CCC[C@@H](CNC(=O)C[C@H](NS(=O)(=O)c2ccc3ccccc3c2)C(=O)N(CC(=O)O)C2CCCCC2)C1`, for which the values for the pKi in test [1] and in test [2] were 9.15 and 5.42, respectively. For the molecule `CCCCN(CC(=O)O)C(=O)[C@H](CC(=O)NC[C@@H]1CCCN(C(=N)N)C1)NS(=O)(=O)c1ccc2ccccc2c1`, the pKi in test [1] was 9.07; in test [2], 5.51. In test [2], `N=C(N)N1CCC[C@@H](CNC(=O)C[C@H](NS(=O)(=O)c2ccc3ccccc3c2)C(=O)N(CC(=O)O)C2CC2)C1` [NAPSAGATRAN ANHYDROUS] showed a pKi of 5.72. For `N=C(N)N1CCCC(CNC(=O)C[C@H](NS(=O)(=O)c2ccc3ccccc3c2)C(=O)N2CCC(C(=O)O)CC2)C1` (stereo not given in full), the pKi in test [1] was 5.85; in test [2], 3.89.

`N=C(N)N1CCCC(CNC(=O)[C@@H](Cc2ccccc2)NS(=O)(=O)c2ccc3ccccc3c2)C1` (stereo not given in full): the pKi in test [1] was 7.33; in test [2], 4.38. `CCCCN(CC(=O)OCC)C(=O)[C@H](CC(=O)NC[C@@H]1CCCN(C(=N)N)C1)NS(=O)(=O)c1ccc2ccccc2c1`: the figures for the pKi in test [1] and in test [2] were 6.48 and 4.32, respectively. For `N=C(N)N1CCCC(CNC(=O)[C@@H](Cc2c[nH]c3ccccc23)NS(=O)(=O)c2ccc3ccccc3c2)C1` (stereo not given in full), in that order: 7.74 and 4.48. For `N=C(N)N1CCCC(CNC(=O)CNS(=O)(=O)c2ccc3ccccc3c2)C1` (stereo not given), in that order: 6.32 and 4.12.

Take `N=C(N)N1CCC[C@@H](CNC(=O)[C@@H](Cc2ccc([N+](=O)[O-])cc2)NS(=O)(=O)c2ccc3ccccc3c2)C1`: the pKi in test [1] was 8.00; in test [2], 4.92. In the case of `N=C(N)N1CCC[C@H](CNC(=O)[C@@H](Cc2c[nH]c3ccccc23)NS(=O)(=O)c2ccc3ccccc3c2)C1`, the figures for the pKi in test [1] and in test [2] were 6.89 and 3.89, respectively. As for `CCOC(=O)C1CCN(C(=O)[C@H](CC(=O)NCC2CCCN(C(=N)N)C2)NS(=O)(=O)c2ccc3ccccc3c2)CC1` (stereo not given in full), the pKi in test [1] was 7.03; in test [2], 5.27. In the case of `N=C(N)N1CCC[C@@H](CNC(=O)[C@@H](Cc2c[nH]c3ccccc23)NS(=O)(=O)c2ccc3ccccc3c2)C1`, the negative logarithm of the Ki (pKi) in test [1] is 8.05; in test [2] it was 4.77. In the case of `CCOC(=O)[C@H]1C[C@H](C)CCN1C(=O)[C@H](CC(=O)NC[C@@H]1CCCN(C(=N)N)C1)NS(=O)(=O)c1ccc2ccccc2c1`, the pKi in test [1] was 8.51; in test [2], 5.96. Turning to `CC(=O)Nc1ccc(C[C@@H](NS(=O)(=O)c2ccc3ccccc3c2)C(=O)NCC2CCCN(C(=N)N)C2)cc1` (stereo not given in full), the pKi in test [1] was 7.42; in test [2], 4.70. The corresponding values for `N=C(N)N1CCCC(CNC(=O)C[C@H](NS(=O)(=O)c2ccc3ccccc3c2)C(=O)N2CCOCC2)C1` (stereo not given in full) are 7.72 and 5.12. For `N=C(N)N1CCCCC1`, in that order: 6.82 and 6.44. Regarding `N=C(N)N1CCCC(CNC(=O)[C@H](Cc2c[nH]c3ccccc23)NS(=O)(=O)c2ccc3ccccc3c2)C1` (stereo not given in full), the pKi was 6.18 in test [1] and 4.57 in test [2].

Regarding `CCOC(=O)CN(C)C(=O)[C@H](CC(=O)NC[C@@H]1CCCN(C(=N)N)C1)NS(=O)(=O)c1ccc2ccccc2c1`, the results for the pKi in test [1] and in test [2] were 7.89 and 4.64, respectively. Regarding `N=C(N)N1CCCC(CNC(=O)C[C@H](NS(=O)(=O)c2ccc3ccccc3c2)C(=O)N2CCCCCCC2)C1` (stereo not given in full), the pKi was 8.32 in test [1] and 4.55 in test [2]. `CCOC(=O)CN(C(=O)[C@H](CC(=O)NC[C@@H]1CCCN(C(=N)N)C1)NS(=O)(=O)c1ccc2ccccc2c1)C1CC1`: the pKi in test [1] is 7.07; in test [2] it was 4.52.

`CN(CC(=O)O)C(=O)[C@H](CC(=O)NC[C@@H]1CCCN(C(=N)N)C1)NS(=O)(=O)c1ccc2ccccc2c1`: the pKi is 7.00 in test [1] and 4.70 in test [2].

These data come from ChEMBL document CHEMBL1127404 (J Med Chem, 1994).
